The values that follow come from US8642011B2 (priority 2006, dated 2014).

What all share (experiment): microbe, parasite or virus in culture
Conditions in all cases: Mycobacterium tuberculosis, read-out: minimum inhibitory concentration (MIC)

Test [1] deals with M. tuberculosis strains H37Rv. In kind it is cell-based.
Test [2] deals with MT103 (wild type). In kind it is cell-based, M. tuberculosis.
Test [3] relates to SO2 strain. The class given is cell-based, M. tuberculosis.

Converted amounts (≈) assume the structure as drawn. A value given as a limit tells only on which side of the number the result lay.

`CC[C@@H](CO)NCCN[C@@H](CC)CO` [Ethambutol]: the MIC in test [1], in test [2] and in test [3] was 2 µg/mL (≈ 9.79 µM) each time.
`NNC(=O)c1ccncc1` [Isoniazid]: the MIC in test [1] is 0.5 µg/mL (≈ 3.65 µM); in test [2], 0.5 µg/mL (≈ 3.65 µM); in test [3], 0.25 µg/mL (≈ 1.82 µM).
For `CO[C@H]1/C=C/O[C@@]2(C)Oc3c(C)c(O)c4c(O)c(c(/C=N/N5CCN(C)CC5)c(O)c4c3C2=O)NC(=O)/C(C)=C\C=C\[C@H](C)[C@H](O)[C@@H](C)[C@@H](O)[C@@H](C)[C@H](OC(C)=O)[C@@H]1C` [Rifampicin], the MIC in test [1], in test [2] and in test [3] was < 0.004 µg/mL in each case.
Regarding `[H]/N=C(/N)N[C@H]1[C@H](O)[C@@H](O)[C@H](O[C@@H]2O[C@@H](C)[C@](O)(C=O)[C@H]2O[C@@H]2O[C@@H](CO)[C@H](O)[C@@H](O)[C@@H]2NC)[C@@H](N/C(N)=N\[H])[C@@H]1O` [Streptomycin], the MIC in test [1], in test [2] and in test [3] was < 0.5 µg/mL each time.
